From patent US8822482B2, “Icotinib hydrochloride, synthesis, crystalline forms, pharmaceutical compositions, and uses thereof” (Beta Pharma, Inc., priority 2008, dated 2014)
Where two headings read alike, the source gives them in different places.

Legend:
[1] = biological target: Arg (abl-related gene) tyrosine kinase (Homo sapiens, UniProt P42684); assay: Selectivity: inhibition of Arg tyrosine kinase, Crk substrate phosphorylation, same methodology; assay type: biochemical; conditions: 62.5 nM
Method: Method: This method is based on the ability of protein kinases to catalyze substrate phosphorylation; radioisotope ^32P-labeled ATP (^32P-γ-ATP) is utilized in the reaction system to radioactively tag the protein substrate with ^32P. After separation and isolation of the protein substrate by polyacrylamide gel electrophoresis, the intensity of the radioactive ^32P-labeled protein substrate is recorded.
The kinase reaction buffer included 1 μM of non-isotope labeled-ATP. […] The mixture was incubated on ice for 10 min, and 1 μCi of ^32P-γ-ATP was then added. After incubation at 30° C. for 20 min, SDS (sodium dodecyl sulfate) sample buffer was added, and the mixture was boiled in a 100° C. water bath for 4 min. The samples were separated by 10% SDS-PAGE. After vacuum drying of the polyacrylamide gel, the intensity of radioactively labeled proteins were measured and recorded using a Phosphorimager (Molecular Dynamics Inc.). The signal was quantitatively analyzed utilizing ImageQuant software. The degree of Crk substrate phosphorylation was used to estimate the activity of the kinase. Inhibition (%)=(1−kinase activity of the test group/kinase activity of control group)×100%

[2] = tested on: EGFR tyrosine kinase-mediated intracellular protein tyrosine phosphorylation in A431 cells; assay: Inhibition of EGFR-mediated protein phosphorylation at the cellular level (A431 cells, EGF-stimulated, anti-phosphotyrosine blot); assay type: cell-based; conditions: Homo sapiens
Method: Methods: The experiment utilized a high EGFR-expressing cell line, A431 (human epidermoid carcinoma). A431 cells in logarithmic growth phase were seeded into 12-well cell culture plates (5×10^5 cells/well); the cells were grown in DMEM cell culture medium (Gibco Company) containing 10% fetal calf serum (FCS) at 37° C. in 5% CO2 for 18 hours. The cells were washed twice with PBS buffer, and DMEM without FCS was then added. After incubating for 18 hours, Icotinib hydrochloride Crystalline Form I in dimethyl sulfoxide (DMSO) was added to individual wells at final concentrations of 0, 10, 50, 250 or 1000 nM. After incubating at 37° C. for 2.5 hours, 100 ng/ml of EGF was added to stimulate the cells for 5 minutes. Cells were then extracted in the presence 1 mM vanadate (inhibits dephosphorylation) to collect total cellular proteins, and proteins were resolved by 10% SDS-PAGE and transferred to nitrocellulose. Following detection of phosphorylated proteins with anti-phosphotyrosine antibodies (PY99 and 4G10, Upstate Biotech) and visualization with a horseradish peroxidase-labeled second antibody (Transduction Laboratories, Inc.) and ECL chemiluminescence (Amersham Corp.), bands were quantified by densitometry. Membranes were then stripped and incubated with anti-EGFR antibodies to compare amounts of EGFR in cells exposed to different concentrations of Icotinib hydrochloride Crystalline Form I as an internal control. Inhibition (%)=(1−kinase activity of the test group/kinase activity of control group)×100%

[3] = tested on: human A431 (human epidermoid carcinoma cell line) xenograft tumor; assay: Tumor inhibition on human A431 xenograft in nude mice; assay type: in vivo, BALB/C nude mice
Excerpt: This was a preliminary study to compare Icotinib hydrochloride Crystalline Form I with erlotinib hydrochloride on inhibition of human A431 (human epidermoid carcinoma cell line) xenograft tumor.
Methods: The high EGFR-expressing human A431 (human epidermoid carcinoma cell line) cell line was selected for the xenograft study.
Tumor transplantation method: A431 human epidermoid cancer cells were inoculated subcutaneously in the right armpit of BALB/C nude mice to generate tumor nodules. These nodules were harvested, cut into 6 mm^3 blocks for routine inoculation and implanted into each mouse for the study. When tumors reached approximately 20 mm^3 in size (6-7 days), the animals were randomly divided into 4 groups of 6-9 animals/each group and body weights were recorded. The groups consisted of a control group (no drug treatment), an erlotinib hydrochloride treatment group (200 mg/kg) and high and low dose Icotinib hydrochloride Crystalline Form I treatment groups (200 and 50 mg/kg). Drugs were administered by oral gavage once daily; dosing frequency depended on the individual case for tumor growth. Tumor volume [tumor volume (V)=tumor size (L)×short diameter of tumor (S)^2/2] was measured using calipers once every 3 days. The animals were sacrificed 24-hour after the last drug administration and weighed. The tumor was removed and weighed to accurately calculate the tumor size. All group data was analyzed using the t test. If the p value was <0.05, it was considered to be statistically significant. Efficacy determination: tumor inhibition rate=[1−treatment group mean tumor weight (T)/control group mean tumor weight (C)]×100%

[4] = Pharmacology and toxicology experiments, safety pharmacology; assay type: in vivo, Beagle dogs, mice, and rats
Method: Pharmacology and toxicology experiments in Beagle dogs, mice, and rats using Icotinib hydrochloride Crystalline Form I were also conducted.

[5] = Phase I clinical safety study, single doses of tablets; assay type: in vivo, human; conditions: 25-1025 mg single doses, 76 subjects
in vivo = assay: in vivo
Method: In addition, non-clinical pharmacokinetic studies of Icotinib hydrochloride Crystalline Form I in Beagle dogs and rats were conducted.

[6] = tested on: H460 human lung adenocarcinoma xenograft; assay type: in vivo

Sequence of Arg (abl-related gene) tyrosine kinase (P42684 whole entry): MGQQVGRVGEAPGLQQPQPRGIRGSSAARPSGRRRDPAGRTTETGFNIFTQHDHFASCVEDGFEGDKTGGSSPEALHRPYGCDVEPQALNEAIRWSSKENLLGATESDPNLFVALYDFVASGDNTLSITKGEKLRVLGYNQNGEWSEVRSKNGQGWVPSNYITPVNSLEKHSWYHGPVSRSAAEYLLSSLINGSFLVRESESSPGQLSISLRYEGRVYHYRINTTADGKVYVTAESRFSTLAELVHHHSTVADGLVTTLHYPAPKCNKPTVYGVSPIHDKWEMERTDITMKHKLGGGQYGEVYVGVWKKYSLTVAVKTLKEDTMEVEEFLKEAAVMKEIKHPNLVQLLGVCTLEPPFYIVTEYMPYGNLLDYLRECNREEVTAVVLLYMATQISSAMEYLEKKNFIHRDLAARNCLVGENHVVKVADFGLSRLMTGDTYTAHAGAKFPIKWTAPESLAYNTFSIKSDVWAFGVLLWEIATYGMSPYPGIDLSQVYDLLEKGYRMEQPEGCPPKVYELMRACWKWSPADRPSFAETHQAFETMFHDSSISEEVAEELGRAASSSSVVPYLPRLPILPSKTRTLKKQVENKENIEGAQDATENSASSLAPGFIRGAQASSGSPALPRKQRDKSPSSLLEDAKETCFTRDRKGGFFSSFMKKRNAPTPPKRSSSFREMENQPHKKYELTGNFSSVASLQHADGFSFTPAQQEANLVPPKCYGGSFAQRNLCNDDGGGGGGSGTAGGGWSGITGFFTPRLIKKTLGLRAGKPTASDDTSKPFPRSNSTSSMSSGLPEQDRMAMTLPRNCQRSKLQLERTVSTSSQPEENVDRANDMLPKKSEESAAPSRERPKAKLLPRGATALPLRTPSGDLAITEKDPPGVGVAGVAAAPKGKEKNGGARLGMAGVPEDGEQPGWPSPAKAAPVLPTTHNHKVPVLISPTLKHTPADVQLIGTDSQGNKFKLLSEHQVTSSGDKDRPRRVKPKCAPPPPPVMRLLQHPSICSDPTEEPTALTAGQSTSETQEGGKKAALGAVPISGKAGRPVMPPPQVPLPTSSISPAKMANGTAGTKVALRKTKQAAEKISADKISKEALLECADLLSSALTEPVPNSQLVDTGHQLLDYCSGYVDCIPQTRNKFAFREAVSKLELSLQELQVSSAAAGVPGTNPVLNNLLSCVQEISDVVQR

C#Cc1cccc(Nc2ncnc3cc4c(cc23)OCCOCCOCCO4)c1.Cl [4-[(3-ethynyl-phenyl)amino]-6,7-benzo-12-crown-quinazoline hydrochloride]
inhibition of Arg kinase [1]: did not inhibit
EC50 ([2]; A-431, read-out: median effective concentration (EC50)): ~0.05 µM
inhibition at 0.01 µM ([2]; A-431, A431 cells, 10 nM, read-out: inhibition of EGF-induced intracellular protein tyrosine phosphorylation): 5.4%
inhibition at 0.05 µM ([2]; A-431, A431 cells, 50 nM, read-out: inhibition of EGF-induced intracellular protein tyrosine phosphorylation): 52.9%
inhibition at 0.25 µM ([2]; A-431, A431 cells, 250 nM, read-out: inhibition of EGF-induced intracellular protein tyrosine phosphorylation): 61.9%
inhibition at 1 µM ([2]; A-431, A431 cells, 1000 nM, read-out: inhibition of EGF-induced intracellular protein tyrosine phosphorylation): 63.7%
inhibitory activity on drug metabolism enzymes (drug metabolism enzymes): no inhibitory activity
body weight and appearance at experiment termination ([3]; A431 xenograft nude mice): gained weight
tumor inhibition rate ([3]; A431 xenograft, 200 mg/kg oral gavage once daily (later reduced to 100 mg/kg)): 64.6%
toxic effects ([3]; at either dose (200 and 50 mg/kg)): No toxic effects were observed
anti-tumor effect (in words) ([3]; given orally, A431 xenograft mouse model): significant anti-tumor effects
bone marrow toxicity ([4]; Beagle dogs, mice, and rats): no bone marrow toxicity
liver toxicity ([4]; Beagle dogs, mice, and rats): reversible liver toxicity
oral toxicity ([4]; Beagle dogs, mice, and rats): low oral toxicity
teratogenic, mutagenic and reproductive toxicity ([4]; additional toxicity testing): no teratogenic, mutagenic and reproductive toxicity
effect on autonomic nervous system activity or the central nervous system ([4]; safety pharmacological test): no effect
effect on respiration, blood pressure and circulatory function ([4]; safety pharmacological test): no effect
clinical safety of single doses [5]: safe
route of elimination (in vivo): mainly through fecal excretion
tissue distribution (in vivo): widely distributed to various tissues, but was low in brain tissue
Tmax (in vivo; Beagle (dogs), rat, dog, po): ~1 h
bioavailability (in vivo; Beagle (dogs), rat, dog, po): 27 to 62%
H460 tumor inhibition rate ([6]; 30 mg/kg oral gavage once daily for 14 days): 37.5%
H460 tumor inhibition rate ([6]; 60 mg/kg oral gavage once daily for 14 days): 49.3%
H460 tumor inhibition rate ([6]; 120 mg/kg oral gavage once daily for 14 days): 52.0%
